Assay results from PMC7156458, “Synthetic biology based construction of biological activity-related library of fungal decalin-containing diterpenoid pyrones” (Nature Communications, 2020).

Target: Aβ42 (Homo sapiens, UniProt P05067)
Assay: Th-T (thioflavin-T) assay of Aβ42 aggregation
Assay type: biochemical
Conditions: for Th-T fluorescence of Aβ42 (sheet Fig. 7a), mean of three wells: head suffix _50 (concentration 50); for Th-T assay plate reading, mean of three wells (Supplementary Fig. 47): source data, Ab alone and No Ab as controls; for Th-T fluorescence, mean of three wells: Supplementary Fig. 47 source data

Sequence of Aβ42 (P05067 672-713): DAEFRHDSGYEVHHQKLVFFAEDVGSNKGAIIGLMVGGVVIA

Structure (SMILES): C=C1CC[C@@H]2[C@](C)(CC[C@H]3O[C@H](C=C(C)C)C[C@@]23C)[C@@H]1Cc1c(OC)oc(CO)c(C)c1=O [Compound 20]
- Th-T fluorescence of Aβ42 (sheet Fig. 7a), mean of three wells (reading M73): 2.113
- Th-T fluorescence of Aβ42 (sheet Fig. 7a), mean of three wells (reading M74): 2.11
- Th-T fluorescence of Aβ42 (sheet Fig. 7a), mean of three wells (reading M75): 2.1032
- Th-T fluorescence of Aβ42 (sheet Fig. 7a), mean of three wells (reading M76): 2.123
- Th-T fluorescence of Aβ42 (sheet Fig. 7a), mean of three wells (reading M77): 2.122
- Th-T fluorescence of Aβ42 (sheet Fig. 7a), mean of three wells (reading M78): 2.117
- Th-T fluorescence of Aβ42 (sheet Fig. 7a), mean of three wells (reading M79): 2.1153
- Th-T fluorescence of Aβ42 (sheet Fig. 7a), mean of three wells (reading M80): 2.1
- Th-T fluorescence of Aβ42 (sheet Fig. 7a), mean of three wells (reading M81): 2.1
- Th-T fluorescence of Aβ42 (sheet Fig. 7a), mean of three wells (reading M82): 2.102
- Th-T fluorescence of Aβ42 (sheet Fig. 7a), mean of three wells (reading M83): 2.096
- Th-T fluorescence of Aβ42 (sheet Fig. 7a), mean of three wells (reading M84): 2.077
- Th-T assay plate reading, mean of three wells (Supplementary Fig. 47) (measurement M1): 0.2292
- Th-T assay plate reading, mean of three wells (Supplementary Fig. 47) (measurement M2): 0.2238
- Th-T assay plate reading, mean of three wells (Supplementary Fig. 47) (measurement M3): 0.2417
- Th-T assay plate reading, mean of three wells (Supplementary Fig. 47) (measurement M4): 0.2884
- Th-T assay plate reading, mean of three wells (Supplementary Fig. 47) (measurement M5): 0.3754
- Th-T assay plate reading, mean of three wells (Supplementary Fig. 47) (measurement M6): 0.3834
- Th-T assay plate reading, mean of three wells (Supplementary Fig. 47) (measurement M7): 0.4602
- Th-T assay plate reading, mean of three wells (Supplementary Fig. 47) (measurement M8): 0.4852
- Th-T assay plate reading, mean of three wells (Supplementary Fig. 47) (measurement M9): 0.5189
- Th-T assay plate reading, mean of three wells (Supplementary Fig. 47) (measurement M10): 0.5747
- Th-T assay plate reading, mean of three wells (Supplementary Fig. 47) (measurement M11): 0.6382
- Th-T assay plate reading, mean of three wells (Supplementary Fig. 47) (measurement M12): 0.9536
- Th-T assay plate reading, mean of three wells (Supplementary Fig. 47) (measurement M13): 1.7846
- Th-T assay plate reading, mean of three wells (Supplementary Fig. 47) (measurement M14): 2.679
- Th-T assay plate reading, mean of three wells (Supplementary Fig. 47) (measurement M15): 3.243
- Th-T assay plate reading, mean of three wells (Supplementary Fig. 47) (measurement M16): 3.548
- Th-T fluorescence, mean of three wells (Fig. 7a) (reading M107, compound at 10 (head suffix _10)): 3.243
- Th-T fluorescence, mean of three wells (Fig. 7a) (reading M107, compound at 20 (head suffix _20)): 3.218
- Th-T fluorescence, mean of three wells (Fig. 7a) (reading M107, compound at 50 (head suffix _50)): 2.093
- Th-T fluorescence, mean of three wells (Fig. 7a) (reading M108, compound at 10 (head suffix _10)): 3.266
- Th-T fluorescence, mean of three wells (Fig. 7a) (reading M108, compound at 20 (head suffix _20)): 3.22
- Th-T fluorescence, mean of three wells (Fig. 7a) (reading M108, compound at 50 (head suffix _50)): 2.097
- Th-T fluorescence, mean of three wells (Fig. 7a) (reading M109, compound at 10 (head suffix _10)): 3.248
- Th-T fluorescence, mean of three wells (Fig. 7a) (reading M109, compound at 20 (head suffix _20)): 3.217
- Th-T fluorescence, mean of three wells (Fig. 7a) (reading M109, compound at 50 (head suffix _50)): 2.11
- Th-T fluorescence, mean of three wells (Fig. 7a) (reading M110, compound at 10 (head suffix _10)): 3.266
- Th-T fluorescence, mean of three wells (Fig. 7a) (reading M110, compound at 20 (head suffix _20)): 3.23
- Th-T fluorescence, mean of three wells (Fig. 7a) (reading M110, compound at 50 (head suffix _50)): 2.1005
- Th-T fluorescence, mean of three wells (Fig. 7a) (reading M111, compound at 10 (head suffix _10)): 3.255
- Th-T fluorescence, mean of three wells (Fig. 7a) (reading M111, compound at 20 (head suffix _20)): 3.22
- Th-T fluorescence, mean of three wells (Fig. 7a) (reading M111, compound at 50 (head suffix _50)): 2.105
- Th-T fluorescence, mean of three wells (Fig. 7a) (reading M112, compound at 10 (head suffix _10)): 3.256
- Th-T fluorescence, mean of three wells (Fig. 7a) (reading M112, compound at 20 (head suffix _20)): 3.191
- Th-T fluorescence, mean of three wells (Fig. 7a) (reading M112, compound at 50 (head suffix _50)): 2.0956
- Th-T fluorescence, mean of three wells (Fig. 7a) (reading M113, compound at 10 (head suffix _10)): 3.234
- Th-T fluorescence, mean of three wells (Fig. 7a) (reading M113, compound at 20 (head suffix _20)): 3.181
- Th-T fluorescence, mean of three wells (Fig. 7a) (reading M113, compound at 50 (head suffix _50)): 2.0902
- Th-T fluorescence, mean of three wells (Fig. 7a) (reading M114, compound at 10 (head suffix _10)): 3.244
- Th-T fluorescence, mean of three wells (Fig. 7a) (reading M114, compound at 20 (head suffix _20)): 3.188
- Th-T fluorescence, mean of three wells (Fig. 7a) (reading M114, compound at 50 (head suffix _50)): 2.0998
- Th-T fluorescence, mean of three wells (Fig. 7a) (reading M115, compound at 10 (head suffix _10)): 3.222
- Th-T fluorescence, mean of three wells (Fig. 7a) (reading M115, compound at 20 (head suffix _20)): 3.199
- Th-T fluorescence, mean of three wells (Fig. 7a) (reading M115, compound at 50 (head suffix _50)): 2.1006
- Th-T fluorescence, mean of three wells (Fig. 7a) (reading M116, compound at 10 (head suffix _10)): 3.244
- Th-T fluorescence, mean of three wells (Fig. 7a) (reading M116, compound at 20 (head suffix _20)): 3.193
- Th-T fluorescence, mean of three wells (Fig. 7a) (reading M116, compound at 50 (head suffix _50)): 2.109
- Th-T fluorescence, mean of three wells (Fig. 7a) (reading M117, compound at 10 (head suffix _10)): 3.211
- Th-T fluorescence, mean of three wells (Fig. 7a) (reading M117, compound at 20 (head suffix _20)): 3.166
- Th-T fluorescence, mean of three wells (Fig. 7a) (reading M117, compound at 50 (head suffix _50)): 2.104
- Th-T fluorescence, mean of three wells (Fig. 7a) (reading M118, compound at 10 (head suffix _10)): 3.228
- Th-T fluorescence, mean of three wells (Fig. 7a) (reading M118, compound at 20 (head suffix _20)): 3.17
- Th-T fluorescence, mean of three wells (Fig. 7a) (reading M118, compound at 50 (head suffix _50)): 2.102
- Th-T fluorescence, mean of three wells (Fig. 7a) (reading M119, compound at 10 (head suffix _10)): 3.2146
- Th-T fluorescence, mean of three wells (Fig. 7a) (reading M119, compound at 20 (head suffix _20)): 3.1938
- Th-T fluorescence, mean of three wells (Fig. 7a) (reading M119, compound at 50 (head suffix _50)): 2.1065
- Th-T fluorescence, mean of three wells (Fig. 7a) (reading M120, compound at 10 (head suffix _10)): 3.221
- Th-T fluorescence, mean of three wells (Fig. 7a) (reading M120, compound at 20 (head suffix _20)): 3.171
- Th-T fluorescence, mean of three wells (Fig. 7a) (reading M120, compound at 50 (head suffix _50)): 2.103
- Th-T fluorescence, mean of three wells (Fig. 7a) (reading M121, compound at 10 (head suffix _10)): 3.196
- Th-T fluorescence, mean of three wells (Fig. 7a) (reading M121, compound at 20 (head suffix _20)): 3.1528
- Th-T fluorescence, mean of three wells (Fig. 7a) (reading M121, compound at 50 (head suffix _50)): 2.099
- Th-T fluorescence, mean of three wells (Fig. 7a) (reading M122, compound at 10 (head suffix _10)): 3.2052
- Th-T fluorescence, mean of three wells (Fig. 7a) (reading M122, compound at 20 (head suffix _20)): 3.15
- Th-T fluorescence, mean of three wells (Fig. 7a) (reading M122, compound at 50 (head suffix _50)): 2.114
- Th-T fluorescence, mean of three wells (Fig. 7a) (reading M123, compound at 10 (head suffix _10)): 3.204
- Th-T fluorescence, mean of three wells (Fig. 7a) (reading M123, compound at 20 (head suffix _20)): 3.156
- Th-T fluorescence, mean of three wells (Fig. 7a) (reading M123, compound at 50 (head suffix _50)): 2.111
- Th-T fluorescence, mean of three wells (Fig. 7a) (reading M124, compound at 10 (head suffix _10)): 3.218
- Th-T fluorescence, mean of three wells (Fig. 7a) (reading M124, compound at 20 (head suffix _20)): 3.1455
- Th-T fluorescence, mean of three wells (Fig. 7a) (reading M124, compound at 50 (head suffix _50)): 2.111
- Th-T fluorescence, mean of three wells (Fig. 7a) (reading M125, compound at 10 (head suffix _10)): 3.1992
- Th-T fluorescence, mean of three wells (Fig. 7a) (reading M125, compound at 20 (head suffix _20)): 3.1234
- Th-T fluorescence, mean of three wells (Fig. 7a) (reading M125, compound at 50 (head suffix _50)): 2.096
- Th-T fluorescence, mean of three wells (Fig. 7a) (reading M126, compound at 10 (head suffix _10)): 3.205
- Th-T fluorescence, mean of three wells (Fig. 7a) (reading M126, compound at 20 (head suffix _20)): 3.128
- Th-T fluorescence, mean of three wells (Fig. 7a) (reading M126, compound at 50 (head suffix _50)): 2.099
- Th-T fluorescence, mean of three wells (Fig. 7a) (reading M127, compound at 10 (head suffix _10)): 3.195
- Th-T fluorescence, mean of three wells (Fig. 7a) (reading M127, compound at 20 (head suffix _20)): 3.121
- Th-T fluorescence, mean of three wells (Fig. 7a) (reading M127, compound at 50 (head suffix _50)): 2.104
- Th-T fluorescence, mean of three wells (Fig. 7a) (reading M128, compound at 10 (head suffix _10)): 3.198
- Th-T fluorescence, mean of three wells (Fig. 7a) (reading M128, compound at 20 (head suffix _20)): 3.11
- Th-T fluorescence, mean of three wells (Fig. 7a) (reading M128, compound at 50 (head suffix _50)): 2.109
- Th-T fluorescence, mean of three wells (time-course reading M97): 4.216
- Th-T fluorescence, mean of three wells (time-course reading M98): 4.216
- Th-T fluorescence, mean of three wells (time-course reading M99): 4.236
- Th-T fluorescence, mean of three wells (time-course reading M100): 4.238
- Th-T fluorescence, mean of three wells (time-course reading M101): 4.225
- Th-T fluorescence, mean of three wells (time-course reading M102): 4.201
- Th-T fluorescence, mean of three wells (time-course reading M103): 4.222
- Th-T fluorescence, mean of three wells (time-course reading M104): 4.203
- Th-T fluorescence, mean of three wells (time-course reading M105): 4.225
- Th-T fluorescence, mean of three wells (time-course reading M106): 4.21
- Th-T fluorescence, mean of three wells (time-course reading M107): 4.216
- Th-T fluorescence, mean of three wells (time-course reading M108): 4.2224
- Th-T fluorescence, mean of three wells (time-course reading M109): 4.227
- Th-T fluorescence, mean of three wells (time-course reading M110): 4.248
- Th-T fluorescence, mean of three wells (time-course reading M111): 4.24
- Th-T fluorescence, mean of three wells (time-course reading M112): 4.225
- Th-T fluorescence, mean of three wells (time-course reading M113): 4.225
- Th-T fluorescence, mean of three wells (time-course reading M114): 4.212
- Th-T fluorescence, mean of three wells (time-course reading M115): 4.199
- Th-T fluorescence, mean of three wells (time-course reading M116): 4.199
